Results taken from US4459290A, “C-23-Modified derivatives of OMT, pharmaceutical compositions and method of use” (priority 1982, dated 1984).
Values after ≈ are worked out from the molar mass of the structure shown. Read-outs that look alike come from different tables or passages of the source.

Key:
[1] = test system: Streptococcus pneumoniae Park I; assay: microbe, parasite or virus in culture; type: cell-based; details: Streptococcus pneumoniae
Description: (§1) Especially noteworthy is the improved activity against gram-negative bacteria for several derivatives when compared to the activity of OMT. […] The MIC's in Tables V and VI were determined by standard agar-dilution assays. The MIC's in Table VII were obtained using a conventional broth-dilution microtiter test.

[2] = test system: Streptococcus pyogenes C203; assay: ED50 in mice experimentally infected with S. pyogenes C203 (Table VIII); type: in vivo
Description: The C-23 modified derivatives of OMT of this invention have shown in vivo antimicrobial activity against experimental infections. When two doses of test compound were administered to mice experimentally infected with a gram-positive bacterium, S. pyogenes C203, the activity observed was measured as an ED50 value [effective dose in mg/kg to protect 50% of the test animals: see Warren Wick, et al., J. Bacteriol. 81, 233-235 (1961)].

[3] = test system: Pasteurella multocida 22A; assay: MIC, broth-dilution microtiter test (Table VII); type: cell-based; details: Pasteurella multocida, 22A
Description: as §1

Streptococcus sp. 80 = assay: MIC, broth-dilution microtiter test (Table VII); type: cell-based; details: Streptococcus, SP.80
Description: as §1

[4] = test system: Pasteurella hemolytica 23C; assay: MIC, broth-dilution microtiter test (Table VII); type: cell-based; details: Pasteurella, P. hemolytica 23C, read-out: MIC
Description: as §1

[5] = test system: Pasteurella multocida 68C; assay: MIC, broth-dilution microtiter test (Table VII); type: cell-based; details: Pasteurella multocida, 68C
Description: as §1

Staphylococcus aureus = assay: MIC, broth-dilution microtiter test (Table VII); type: cell-based; details: Staphylococcus aureus
Description: as §1

Mycoplasma hyorhinis = assay: MIC, broth-dilution microtiter test (Table VII); type: cell-based; details: M. hyorhinis; broth-dilution microtiter; read-out: MIC
Description: as §1

Mycoplasma gallisepticum = assay: MIC, broth-dilution microtiter test (Table VII); type: cell-based; details: Mycoplasmoides gallisepticum
Description: as §1

[6] = test system: Pasteurella hemolytica 22C; assay: MIC, broth-dilution microtiter test (Table VII); type: cell-based; details: Pasteurella, P. hemolytica 22C, read-out: MIC
Description: as §1

[7] = test system: Pasteurella multocida 17E; assay: MIC, broth-dilution microtiter test (Table VII); type: cell-based; details: Pasteurella multocida, 17E
Description: as §1

[8] = test system: Pasteurella multocida 60A; assay: MIC, broth-dilution microtiter test (Table VII); type: cell-based; details: Pasteurella multocida, 60A
Description: as §1

Mycoplasma synoviae = assay: MIC, broth-dilution microtiter test (Table VII); type: cell-based; details: Mycoplasmopsis synoviae
Description: as §1

[9] = test system: Pasteurella multocida 40G; assay: MIC, broth-dilution microtiter test (Table VII); type: cell-based; details: Pasteurella multocida, 40G
Description: as §1

[10] = test system: Pasteurella hemolytica 41D; assay: MIC, broth-dilution microtiter test (Table VII); type: cell-based; details: Pasteurella, P. hemolytica 41D, read-out: MIC
Description: as §1

[11] = test system: Streptococcus pyogenes C203; assay: MIC, standard agar-dilution assay (Table V); type: cell-based; details: Streptococcus pyogenes, C203
Description: (§2) The MIC's in Tables V and VI were determined by standard agar-dilution assays. The MIC's in Table VII were obtained using a conventional broth-dilution microtiter test.

Escherichia coli TEM = assay: MIC, standard agar-dilution assay (Table V); type: cell-based; details: Escherichia coli; E. coli TEM; agar dilution; read-out: MIC
Description: as §2

[12] = test system: Haemophilus influenzae Holt; assay: MIC, standard agar-dilution assay (Table V); type: cell-based; details: Haemophilus influenzae
Description: as §2

[13] = test system: Haemophilus influenzae R252; assay: MIC, standard agar-dilution assay (Table V); type: cell-based; details: Haemophilus influenzae, R252
Description: as §2

[14] = test system: Salmonella heidelberg X514; assay: MIC, standard agar-dilution assay (Table VI); type: cell-based; details: Salmonella enterica; S. heidelberg X514; agar dilution; read-out: MIC
Description: as §1

[15] = test system: Enterobacter aerogenes EB17; assay: MIC, standard agar-dilution assay (Table VI); type: cell-based; details: Klebsiella aerogenes; E. aerogenes EB17; agar dilution; read-out: MIC
Description: as §1

Proteus rettgeri PR7 = assay: MIC, standard agar-dilution assay (Table VI); type: cell-based; details: Providencia rettgeri; P. rettgeri PR7; agar dilution; read-out: MIC
Description: as §1

Proteus morganii PR15 = assay: MIC, standard agar-dilution assay (Table VI); type: cell-based; details: Morganella morganii; P. morganii PR15; agar dilution; read-out: MIC
Description: as §1

Proteus rettgeri C24 = assay: MIC, standard agar-dilution assay (Table VI); type: cell-based; details: Providencia rettgeri, P. rettgeri C24
Description: as §1

[16] = test system: Pseudomonas aeruginosa X528; assay: MIC, standard agar-dilution assay (Table VI); type: cell-based; details: X528
Description: as §1

[17] = test system: Pseudomonas aeruginosa Ps18; assay: MIC, standard agar-dilution assay (Table VI); type: cell-based; details: P. aeruginosa Ps18, agar dilution, read-out: MIC
Description: as §1

Enterobacter cloacae EB5 = assay: MIC, standard agar-dilution assay (Table VI); type: cell-based; details: E. cloacae EB5, agar dilution, read-out: MIC
Description: as §1

[18] = test system: Enterobacter aerogenes C32; assay: MIC, standard agar-dilution assay (Table VI); type: cell-based; details: Klebsiella aerogenes; E. aerogenes C32; agar dilution; read-out: MIC
Description: as §1

Proteus inconstans PR33 = assay: MIC, standard agar-dilution assay (Table VI); type: cell-based; details: Providencia alcalifaciens; P. inconstans PR33; agar dilution; read-out: MIC
Description: as §1

[19] = test system: Citrobacter freundii CF17; assay: MIC, standard agar-dilution assay (Table VI); type: cell-based; details: C. freundii CF17, agar dilution, read-out: MIC
Description: as §1

[20] = test system: Klebsiella pneumoniae X68; assay: MIC, standard agar-dilution assay (Table VI); type: cell-based; details: K. pneumoniae X68, agar dilution, read-out: MIC
Description: as §1

Serratia marcescens X99 = assay: MIC, standard agar-dilution assay (Table VI); type: cell-based; details: S. marcescens X99, agar dilution, read-out: MIC
Description: as §1

Serratia marcescens SE3 = assay: MIC, standard agar-dilution assay (Table VI); type: cell-based; details: S. marcescens SE3, agar dilution, read-out: MIC
Description: as §1

[21] = test system: Pseudomonas aeruginosa X239; assay: MIC, standard agar-dilution assay (Table VI); type: cell-based; details: P. aeruginosa X239, agar dilution, read-out: MIC
Description: as §1

Salmonella typhi 1335 = assay: MIC, standard agar-dilution assay (Table VI); type: cell-based; details: Salmonella enterica
Description: as §1

Shigella sonnei N9 = assay: MIC, standard agar-dilution assay (Table V); type: cell-based
Description: as §1

[22] = test system: Staphylococcus aureus X400; assay: MIC, standard agar-dilution assay (Table V); type: cell-based; details: Staphylococcus aureus, X400
Description: as §1

[23] = test system: Staphylococcus epidermidis EPI1; assay: MIC, standard agar-dilution assay (Table V); type: cell-based; details: Staphylococcus epidermidis, EPI1
Description: as §1

Escherichia coli N10 = assay: MIC, standard agar-dilution assay (Table V); type: cell-based; details: Escherichia coli; E. coli N10; agar dilution; read-out: MIC
Description: as §1

[24] = test system: Staphylococcus epidermidis EPI2; assay: MIC, standard agar-dilution assay (Table V); type: cell-based; details: Staphylococcus epidermidis, EPI2
Description: as §1

[25] = test system: Staphylococcus aureus V41; assay: MIC, standard agar-dilution assay (Table V); type: cell-based; details: Staphylococcus aureus, V41
Description: as §1

[26] = test system: Klebsiella pneumoniae KAE; assay: MIC, standard agar-dilution assay (Table V); type: cell-based; details: Klebsiella pneumoniae; K. pneumoniae KAE; agar dilution; read-out: MIC
Description: as §1

[27] = test system: Staphylococcus aureus X1.1; assay: MIC, standard agar-dilution assay (Table V); type: cell-based; details: Staphylococcus aureus, X1.1
Description: as §1

Streptococcus Group 9960 = assay: MIC, standard agar-dilution assay (Table V); type: cell-based; details: GROUP9960
Description: as §1

[28] = test system: Klebsiella pneumoniae X26; assay: MIC, standard agar-dilution assay (Table V); type: cell-based; details: Klebsiella pneumoniae; K. pneumoniae X26; agar dilution; read-out: MIC
Description: as §1

[29] = test system: Streptococcus Group D X66; assay: MIC, standard agar-dilution assay (Table V); type: cell-based
Description: as §1

[30] = test system: Staphylococcus aureus S13E; assay: MIC, standard agar-dilution assay (Table V); type: cell-based; details: Staphylococcus aureus, S13E
Description: as §1

Escherichia coli EC14 = assay: MIC, standard agar-dilution assay (Table V); type: cell-based; details: Escherichia coli; E. coli EC14; agar dilution; read-out: MIC
Description: as §1

CCC1OC(=O)CC(O)C(C)C(OC2OC(C)C(O)C(N(C)C)C2O)C(CC=O)CC(C)C(=O)C=CC(C)(OC)C2CC12 (stereo not shown) [Compound 17]
MIC [1]: 0.25 µg/mL (≈ 0.409 µM) | ED50 ([2]; C203, po, read-out: ED50, Oral): > 100 mg/kg | ED50 ([2]; C203, sc, read-out: ED50, Subcutaneous): > 25 mg/kg | MIC [3]: 6.25 µg/mL (≈ 10.2 µM) | MIC (Streptococcus sp. 80): 1.56 µg/mL (≈ 2.55 µM) | MIC [4]: 25 µg/mL (≈ 40.9 µM) | MIC [5]: 6.25 µg/mL (≈ 10.2 µM) | MIC (Staphylococcus aureus): 3.12 µg/mL (≈ 5.1 µM) | MIC (Mycoplasma hyorhinis): 25 µg/mL (≈ 40.9 µM) | MIC (Mycoplasma gallisepticum): 0.78 µg/mL (≈ 1.27 µM) | MIC [6]: 25 µg/mL (≈ 40.9 µM) | MIC [7]: 6.25 µg/mL (≈ 10.2 µM) | MIC [8]: 12.5 µg/mL (≈ 20.4 µM) | MIC (Mycoplasma synoviae): 1.56 µg/mL (≈ 2.55 µM) | MIC [9]: 6.25 µg/mL (≈ 10.2 µM) | MIC [10]: 25 µg/mL (≈ 40.9 µM) | MIC [11]: 1 µg/mL (≈ 1.63 µM) | MIC (Escherichia coli TEM): 64 µg/mL (≈ 105 µM) | MIC [12]: 8 µg/mL (≈ 13.1 µM) | MIC [13]: 8 µg/mL (≈ 13.1 µM) | MIC [14]: > 128 µg/mL | MIC [15]: > 128 µg/mL | MIC (Proteus rettgeri PR7): > 128 µg/mL | MIC (Proteus morganii PR15): > 128 µg/mL | MIC (Proteus rettgeri C24): > 128 µg/mL | MIC [16]: 64 µg/mL (≈ 105 µM) | MIC [17]: > 128 µg/mL | MIC (Enterobacter cloacae EB5): > 128 µg/mL | MIC [18]: > 128 µg/mL | MIC (Proteus inconstans PR33): > 128 µg/mL | MIC [19]: > 128 µg/mL | MIC [20]: > 128 µg/mL | MIC (Serratia marcescens X99): > 128 µg/mL | MIC (Serratia marcescens SE3): > 128 µg/mL | MIC [21]: > 128 µg/mL | MIC (Salmonella typhi 1335): > 128 µg/mL | MIC (Shigella sonnei N9): > 128 µg/mL | MIC [22]: 2 µg/mL (≈ 3.27 µM) | MIC [23]: 2 µg/mL (≈ 3.27 µM) | MIC (Escherichia coli N10): > 128 µg/mL | MIC [24]: 2 µg/mL (≈ 3.27 µM) | MIC [25]: 2 µg/mL (≈ 3.27 µM) | MIC [26]: > 128 µg/mL | MIC [27]: 2 µg/mL (≈ 3.27 µM) | MIC (Streptococcus Group 9960): 2 µg/mL (≈ 3.27 µM) | MIC [28]: 16 µg/mL (≈ 26.2 µM) | MIC [29]: 2 µg/mL (≈ 3.27 µM) | MIC [30]: 2 µg/mL (≈ 3.27 µM) | MIC (Escherichia coli EC14): > 128 µg/mL
